As a reminder, the LD50 is the dose expected to kill half of the subjects tested.

m = 2'-O-methyl; r = 2'-OH (RNA); f = 2'-fluoro

In data set [1] the test system is mouse. To be noted: cited from earlier work.
The test system of data set [2] is humans. To be noted: cited from earlier work.
The conditions of data set [3]: in vivo; cited from earlier work.
The nature of data set [4]: Pharmacokinetics of cotinine-pegaptanib and its anti-cotinine IgG complex in mice (serum VEGF ELISA). Type of data set: in vivo. To be noted: ICR mouse, tail vein, 0.135 mg/kg. The protocol:
Male wild-type ICR mouse aged from 4 to 6 weeks were injected through tail vein with cotinine-pegaptanib (0.135 mg/kg) and a cotinine-pegaptanib (0.135 mg/kg)/anti-cotinine IgG (1 mg/kg) complex, diluted in 100 μL of PBS. Each peripheral blood was obtained through the orbital plexus at 0, 0.5, 1, 1.5 and 2 hours after the injection, and the obtained peripheral blood was maintained at a room temperature for 30 minutes then centrifuged at 800 g for 15 minutes to collect supernatant only so that serum was obtained, and analyzed by using ELISA.
Each well of a 96-well ELISA plate was coated with 50 ng of human VEGF dissolved in PBS overnight, and then blocked by PBSB. Then, each serum was diluted in PBSB at a ratio of 1:100, and added to each well with 100 nM of an anti-cotinine IgG The plate was maintained at a room temperature for one hour and washed with PBS-T, and then HRP-bound rabbit anti-human Fc specific IgG (Thermo Fisher Scientific) was added to each well. The resultant mixture was maintained at room temperature for one hour. Subsequently, 3,3′,5,5′-tetramethylbenzidine (TMB) (Thermo Fisher Scientific) was added as a substrate to the resultant mixture, and kept at a room temperature for 15 minutes, followed by measuring the optical density at 650 nm.
Background: An ELISA detects its analyte on a solid surface through an enzyme-linked reagent.

Turning to `CN1C(=O)CC[C@H]1c1cccnc1` [cotinine], the median lethal dose (LD50) in data set [1] was 2000 to 4000 mg/kg. Further, the side effects result in data set [2] (4-day administration at a daily dose of 1.8 g) was “no particular side effects have not been reported”. For the same compound, the “physiological activity; physiological and behavioral changes” value in data set [2] (humans, maximally 160 mg for three days) was “any physiological and behavioral changes have not been reported”. The half-life in serum result in data set [3] is on record as “about 16 hours”.
For “cotinine-pegaptanib: nucleic acid part of pegaptanib RNA aptamer (SEQ ID NO: 5) conjugated with cotinine via amino C6 linker (CGGAAUCAGUGAAUGCUUAUACAUCCG; sugars from the 5' end fmmrrffmmfmmmfmfffmfmfmfffm, backbone not given here; cotinine conjugated via amino C6 linker, further chemistry not fully specified)”, the “degradation after injection into the body” value in data set [4] is recorded as “degraded immediate after injection into the body”.

The record behind these values is patent US9867886B2, “Complex in which anti-cotinine antibody is bound to conjugate of cotinine and binding substance, and use thereof” (SNU R&DB FOUNDATION, priority 2011, dated 2018).
